# Read-outs that look alike come from different tables or passages of the source.
# Key:
# [1] = system: Pure variant di-heteromeric GluN2B-H486A; design: method as in PMID 24607230; conditions: glutamate; ref 8; cited from earlier work
# [2] = system: Pure variant di-heteromeric GluN2B-G543R; design: method as in PMID 35110392; conditions: glutamate; ref 10; cited from earlier work
# [3] = system: non-tagged purely di-heteromeric GluN2B-G689C; conditions: read-out: Glutamate EC50 (adapted from[16]); non-tagged human receptors; cited from earlier work
# [4] = system: Mixed di-heteromeric GluN2A-wt/GluN2A-P552R; design: method as in PMID 28095420; conditions: glutamate; ref 32; cited from earlier work
# [5] = biological target: T1, Tri-heteromeric GluN2A-wt/GluN2B-G689C (Rattus norvegicus, UniProt P35439+Q00959+Q00960, A876H/F846L/G689C/G856D/H848F/K857R/M851T/M860L/Q845K/V861L); format: cell-based; conditions: glutamate dose-response
# T1 construct: expressed in transfected cells; host or cells: Xenopus laevis oocytes, mRNA injection
# From the text: (§1) Aliquots were thawed before each experiment.
# [6] = biological target: T2, Tri-heteromeric GluN2A-wt/GluN2B-G689S (Rattus norvegicus, UniProt P35439+Q00959+Q00960, A876H/F846L/G689S/G856D/H848F/K857R/M851T/M860L/Q845K/V861L); format: cell-based; conditions: glutamate dose-response
# T2 construct: expressed in transfected cells; host or cells: Xenopus laevis oocytes, mRNA injection
# T2 sequence (Q00960+Q00959 fused with the stated changes, other chains not shown): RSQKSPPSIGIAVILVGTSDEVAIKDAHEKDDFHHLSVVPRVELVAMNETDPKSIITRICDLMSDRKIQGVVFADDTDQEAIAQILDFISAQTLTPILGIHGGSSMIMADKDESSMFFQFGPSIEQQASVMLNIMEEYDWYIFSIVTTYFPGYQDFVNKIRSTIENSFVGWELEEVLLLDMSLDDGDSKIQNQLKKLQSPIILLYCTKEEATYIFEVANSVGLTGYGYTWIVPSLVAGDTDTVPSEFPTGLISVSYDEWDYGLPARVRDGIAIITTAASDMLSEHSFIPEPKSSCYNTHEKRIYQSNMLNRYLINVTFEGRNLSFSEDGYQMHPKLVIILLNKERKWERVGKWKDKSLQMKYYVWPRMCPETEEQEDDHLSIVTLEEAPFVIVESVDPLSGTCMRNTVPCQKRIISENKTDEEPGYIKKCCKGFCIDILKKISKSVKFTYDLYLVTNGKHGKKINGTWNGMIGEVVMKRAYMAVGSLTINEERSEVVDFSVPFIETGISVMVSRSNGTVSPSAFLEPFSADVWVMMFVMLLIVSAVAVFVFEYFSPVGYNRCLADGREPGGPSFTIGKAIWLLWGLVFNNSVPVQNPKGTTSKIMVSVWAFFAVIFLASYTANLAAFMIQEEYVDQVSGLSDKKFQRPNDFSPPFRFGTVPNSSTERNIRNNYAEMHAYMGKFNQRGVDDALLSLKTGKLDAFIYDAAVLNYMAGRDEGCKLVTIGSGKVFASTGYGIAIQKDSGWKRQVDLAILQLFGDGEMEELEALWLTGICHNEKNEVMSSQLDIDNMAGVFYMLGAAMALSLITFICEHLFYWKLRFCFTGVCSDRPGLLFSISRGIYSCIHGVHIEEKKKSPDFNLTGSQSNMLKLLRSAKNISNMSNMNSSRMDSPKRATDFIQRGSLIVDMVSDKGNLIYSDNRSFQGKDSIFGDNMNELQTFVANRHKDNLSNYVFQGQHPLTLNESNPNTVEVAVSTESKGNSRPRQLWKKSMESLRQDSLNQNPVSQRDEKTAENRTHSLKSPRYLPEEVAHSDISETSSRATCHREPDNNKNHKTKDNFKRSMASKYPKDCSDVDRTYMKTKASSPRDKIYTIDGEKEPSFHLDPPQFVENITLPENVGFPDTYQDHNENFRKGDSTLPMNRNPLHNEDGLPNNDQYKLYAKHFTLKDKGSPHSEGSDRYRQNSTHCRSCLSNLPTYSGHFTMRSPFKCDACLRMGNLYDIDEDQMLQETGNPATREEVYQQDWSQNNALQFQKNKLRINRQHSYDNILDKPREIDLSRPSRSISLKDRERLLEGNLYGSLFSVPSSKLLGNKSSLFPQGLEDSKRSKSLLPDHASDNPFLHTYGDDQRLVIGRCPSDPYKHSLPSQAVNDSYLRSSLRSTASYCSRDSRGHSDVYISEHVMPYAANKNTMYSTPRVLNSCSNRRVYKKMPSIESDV
# T2 sequence (Q00959 23-1464, other chains not shown): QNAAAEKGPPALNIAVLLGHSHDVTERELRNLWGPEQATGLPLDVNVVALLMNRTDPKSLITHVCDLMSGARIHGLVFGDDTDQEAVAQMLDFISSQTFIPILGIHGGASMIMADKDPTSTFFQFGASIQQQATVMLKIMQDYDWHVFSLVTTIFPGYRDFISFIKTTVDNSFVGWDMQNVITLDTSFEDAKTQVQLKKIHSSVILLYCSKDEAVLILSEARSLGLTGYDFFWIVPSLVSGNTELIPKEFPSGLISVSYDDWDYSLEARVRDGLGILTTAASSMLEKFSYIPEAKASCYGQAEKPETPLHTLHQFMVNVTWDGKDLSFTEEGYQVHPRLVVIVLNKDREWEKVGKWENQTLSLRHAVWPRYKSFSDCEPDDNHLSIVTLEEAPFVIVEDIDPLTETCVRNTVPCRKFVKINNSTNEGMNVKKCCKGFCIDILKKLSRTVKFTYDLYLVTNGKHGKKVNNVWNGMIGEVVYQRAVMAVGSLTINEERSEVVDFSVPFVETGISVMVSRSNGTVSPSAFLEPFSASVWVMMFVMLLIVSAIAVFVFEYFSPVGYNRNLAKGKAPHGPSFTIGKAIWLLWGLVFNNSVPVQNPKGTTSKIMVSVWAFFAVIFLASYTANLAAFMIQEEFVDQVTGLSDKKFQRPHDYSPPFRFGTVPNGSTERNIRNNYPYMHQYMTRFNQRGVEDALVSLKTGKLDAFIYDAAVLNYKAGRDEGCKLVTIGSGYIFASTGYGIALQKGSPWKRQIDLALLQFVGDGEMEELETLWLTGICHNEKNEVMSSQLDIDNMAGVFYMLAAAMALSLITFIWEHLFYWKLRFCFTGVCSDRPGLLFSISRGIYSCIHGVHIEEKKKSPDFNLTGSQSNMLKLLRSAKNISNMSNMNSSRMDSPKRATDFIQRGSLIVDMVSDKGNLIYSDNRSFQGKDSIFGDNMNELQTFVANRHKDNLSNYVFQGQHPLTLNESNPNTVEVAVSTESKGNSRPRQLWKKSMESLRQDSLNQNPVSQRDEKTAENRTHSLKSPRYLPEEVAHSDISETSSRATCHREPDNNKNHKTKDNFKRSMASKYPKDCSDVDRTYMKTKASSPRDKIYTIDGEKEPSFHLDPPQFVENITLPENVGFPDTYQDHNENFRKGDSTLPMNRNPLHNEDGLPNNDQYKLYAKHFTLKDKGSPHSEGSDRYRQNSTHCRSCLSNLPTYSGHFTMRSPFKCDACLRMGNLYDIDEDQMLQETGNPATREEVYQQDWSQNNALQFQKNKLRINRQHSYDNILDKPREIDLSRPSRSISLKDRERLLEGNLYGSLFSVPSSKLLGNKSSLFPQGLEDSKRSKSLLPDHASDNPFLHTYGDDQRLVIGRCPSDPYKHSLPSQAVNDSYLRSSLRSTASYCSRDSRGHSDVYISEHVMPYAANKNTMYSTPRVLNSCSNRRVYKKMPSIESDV
# From the text: as §1
# [7] = system: Tri-heteromeric GluN2A-wt/GluN2B-G689C; format: cell-based, rat; conditions: compared to GluN2A-wt + GluN2B-wt tri-heteromeric channels
# From the text: as §1
# [8] = system: Tri-heteromeric GluN2A-wt/GluN2B-G689S; format: cell-based, rat; conditions: compared to GluN2A-wt + GluN2B-wt tri-heteromeric channels
# From the text: as §1
# [9] = system: Mixed di-heteromeric GluN2A-wt/GluN2A-M817V; design: method as in PMID 28126851; conditions: glutamate; ref 91; cited from earlier work
# [10] = system: Mixed tri-heteromeric GluN2A-E551K/ GluN2B-wt; design: method as in PMID 35110392; conditions: glutamate; ref 10; cited from earlier work
# [11] = system: Pure variant di-heteromeric GluN2A-L649V; design: method as in PMID 35110392; conditions: glutamate; ref 10; cited from earlier work
# [12] = system: Mixed tri-heteromeric GluN2A-wt/ GluN2B-G543R; design: method as in PMID 35110392; conditions: glutamate; ref 10; cited from earlier work
# [13] = system: non-tagged purely di-heteromeric GluN2B-G689S; conditions: read-out: Glutamate EC50 (adapted from[16]); non-tagged human receptors; cited from earlier work
# [14] = system: Mixed tri-heteromeric GluN2A-S644G/ GluN2B-wt; design: method as in PMID 35110392; conditions: glutamate; ref 10; cited from earlier work
# [15] = system: Pure variant di-heteromeric GluN2A-D731N; design: method as in PMID 28182669; conditions: glutamate; ref 33; cited from earlier work
# [16] = system: Mixed tri-heteromeric GluN2A-L812M/ GluN2B-wt; design: method as in PMID 35110392; conditions: glutamate; ref 10; cited from earlier work
# [17] = system: Pure variant di-heteromeric GluN2B-M818T; design: method as in PMID 28377535; conditions: glutamate; ref 25; cited from earlier work
# [18] = system: Pure variant di-heteromeric GluN2A-E551K; design: method as in PMID 35110392; conditions: glutamate; ref 10; cited from earlier work
# [19] = system: Mixed tri-heteromeric GluN2A-L649V/ GluN2B-wt; design: method as in PMID 35110392; conditions: glutamate; ref 10; cited from earlier work
# [20] = system: Mixed tri-heteromeric GluN2A-wt/ GluN2B-H486A; design: method as in PMID 24607230; conditions: glutamate; ref 8; cited from earlier work
# [21] = system: Pure variant di-heteromeric GluN2A-L812M; design: method as in PMID 24504326; conditions: glutamate; ref 39; cited from earlier work
# [22] = biological target: Tri-heteromeric GluN2A-wt/GluN2B-wt (Rattus norvegicus, UniProt P35439+Q00959+Q00960, A876H/F846L/G856D/H848F/K857R/M851T/M860L/Q845K/V861L); experiment: TEVC in Xenopus oocytes; conditions: glutamate dose-response
# Experimental: Two electrode voltage clamp (TEVC) recordings were carried out 24–72 h after mRNA injections, as previously described [17, 37]. We use a commercial amplifier (Warner Instruments, USA) and Digitizer (Digidata-1550B; Molecular Devices, USA), controlled by the pClamp10 software (Molecular Devices, USA). Electrode were made by pulling glass capillaries (Narishige, Japan) filled with 3 M KCl, into which we inserted chlorinated silver wires. […] For hERG channel recordings, oocytes were clamped at (− 60) mV for 1 s, followed by a voltage jump to 20 mV for 4 s, and an additional voltage jump to (− 50) mV for 6 s and return to baseline voltage (see Supplementary. 6f), as previously described [53].
# When assessing potentiation by PS, all other solutions also included equal amounts of the DMSO carrier (0.2%).
# Electrophysiology data were analyzed by Clampfit 11.2 (Molecular Devices, USA), plotted using GraphPad 8 or SigmaPlot 11(Systat software, Inc.). […] In all TEVC recordings in oocytes, the responses were normalized to current amplitude obtained from that individual cell. […] All data are shown as mean ± SEM. In all experiments N indicates the number of independent experiments, whereas n indicates the number of cells recorded. In each experiment, data underwent normality test prior to statistical assessment. Normally distributed data were assessed for significance by using paired t-test or one-way ANOVA for multiple group comparison and post hoc Tukey test or Dunnett's test. Similarly, in the case of non-normally distributed data significance was assessed by Mann Whitney test or Kruskal–Wallis ANOVA on ranks test followed by Dunn’s multiple comparison post hoc; n.s., non-significant; *p < 0.05; **p < 0.01; ***p < 0.001. […] Leak expression was evaluated by normalizing the maximal current (Imax) of each ER-retained NMDAR composition to Imax of control group (which was recorded in all experiments). […]
# [23] = system: Double Variant Tri-Heteromeric NMDAR (GluN2A-H485A, GluN2B-H486A); design: method as in PMID 24607230; conditions: glutamate; ref 8; cited from earlier work
# [24] = biological target: T3, Purely di-heteromeric GluN2B-wt (GluN1-1a-wt + GluN2B-wt-C1/C2) (Rattus norvegicus, UniProt P35439+Q00959+Q00960, A876H/F846L/G856D/H848F/K857R/M851T/M860L/Q845K/V861L); experiment: TEVC in Xenopus oocytes; format: cell-based; conditions: glutamate dose-response
# T3 construct: expressed in transfected cells; host or cells: Xenopus laevis oocytes, mRNA injection
# From the text: as §1
# [25] = biological target: T4, Purely di-heteromeric GluN2B-G689S (C1/C2) (Rattus norvegicus, UniProt P35439+Q00959+Q00960, A876H/F846L/G689S/G856D/H848F/K857R/M851T/M860L/Q845K/V861L); experiment: TEVC in Xenopus oocytes; format: cell-based
# T4 construct: expressed in transfected cells; host or cells: Xenopus laevis oocytes, mRNA injection
# T4 sequence (Q00960+Q00959 fused with the stated changes, other chains not shown): as the sequence (Q00960+Q00959 fused with the stated changes, other chains not shown) above
# From the text: as §1
# [26] = biological target: T5, Mixed di-heteromeric GluN2B-wt/GluN2B-G689S (Rattus norvegicus, UniProt P35439+Q00960, G689S); experiment: TEVC in Xenopus oocytes; format: cell-based
# T5 construct: expressed in transfected cells; host or cells: Xenopus laevis oocytes, mRNA injection
# From the text: as §1
# [27] = system: wt di-heteromeric GluN2B NMDAR; conditions: glutamate, cited from earlier work
smiles,measurement,setting,value
"N[C@@H](CCC(=O)O)C(=O)O [Glutamate, glutamate]",EC50,[1],460 µM
same,EC50,[2],0.22 µM
same,EC50,[3],1500 ± 200 µM
same,EC50,[4],1.2 µM
same,Hill coefficient (nH),[5],"0.85 ± 0.14 n.s (N = 1, n = 10)"
same,Hill coefficient (nH),[6],"1.06 ± 0.13 n.s (N = 1, n = 11)"
same,increase in EC50,[7],~ 300 fold
same,increase in EC50,[8],~ 600 fold
same,EC50,[9],1.1 µM
same,EC50,[10],0.7 µM
same,EC50,[11],0.05 µM
same,EC50,[12],1.9 µM
same,EC50,[13],2500 ± 400 µM
same,EC50,[14],0.49 µM
same,EC50,[15],30000 µM
same,EC50,[16],0.84 µM
same,EC50,[17],0.37 µM
same,EC50,[18],0.47 µM
same,EC50,[19],0.36 µM
same,EC50,[20],140 µM
same,EC50,[21],0.39 µM
same,Hill coefficient (nH),[22],"0.77 ± 0.22 (N = 3, n = 33)"
same,EC50,[23],730 µM
same,Hill coefficient (nH),[24],"0.86 ± 0.29 (N = 6, n = 38)"
same,increase in the EC50 value,[25]; compared to GluN2B-wt-C1/C2 receptors,> 3000 fold
same,Hill coefficient (nH),[25]; glutamate dose-response,"2.45 ± 0.41 (N = 2, n = 9)"
same,higher (improved) glutamate potency,[26]; compared to purely di-heteromeric variant channels,~ four-fold
same,Hill coefficient (nH),[26]; glutamate dose-response,"1.02 ± 0.10 n.s (N = 1, n = 13)"
same,EC50,[27]; control of GluN2B-E413G,0.9 µM
same,EC50,[27]; ref 8,1.6 µM

# Reference: article PMC11127902, “Rescuing tri-heteromeric NMDA receptor function: the potential of pregnenolone-sulfate in loss-of-function GRIN2B variants” (Cellular and Molecular Life Sciences: CMLS, 2024)
